From patent US8003602B2 (priority 2006, dated 2011) come the findings set out here.

For experiment [1], the system named is methicillin resistant Staphylococcus aureus E710 (MRSA). Description: Systemic infection model (septicemia). Format: in vivo, Balb/C mice. The note with it: mice infected intraperitoneally with MRSA E710, administered intravenously immediately after infection. The text has this:
(§1) The in-vivo potency was established by protection dose (PD) determinations of the compound PM181104 for its antibiotic activity in three animal models using either male or female Balb/C mice.
(§2) The models used were the general purpose efficacy testing models and organ/tissue specific efficacy testing models. The general purpose efficacy testing models used were systemic infection model (septicemia), and localized infection model (neutropenic thigh model). The Organ/Tissue specific infection models used for efficacy testing were kidney, lung infection, and skin abscess model.
The animals were infected intraperitoneally with ˜10^8 to 10^9 cfu of an overnight grown culture of methicillin resistant Staphylococcus aureus E710 (MRSA), suspended in normal saline (0.85% sodium chloride). PM181104 solution was prepared in cremophor-ethanol formulation as described in example 14. The solution was administered intravenously at 5 mg, 2.5 mg and 1.25 mg/kg doses, immediately after infection. Each experimental group consisted of ten animals.

Experiment [2] has as its system E. faecium D-59. As to the kind of experiment: MIC, Macro-broth dilution method. In kind it is cell-based, Enterococcus faecium. The text has this: (§3) The in-vitro potency was established by minimum inhibitory concentration (MIC) determinations of the compound PM181104 against bacterial strains, by using the Macro-broth dilution method as per National Committee for Clinical Laboratory Standards (2000) guidelines [Journal of Anti-microbial Chemotherapy, 2002, 50, 125-128 (Cross Reference 8: Methods for Dilution Antimicrobial Susceptibility Tests for Bacteria that Grow Aerobically-Fifth Edition: Approved Standard M7-A5. NCCLS, Wayne, Pa., USA)]. Unless stated otherwise, Mueller-Hinton broth was used as nutrient medium for the assay. Linezolid (manufactured by Glenmark Pharma Ltd; Batch no: K2005028) was used as known standard in all in-vitro experiments. For preparation of the stock solution the compound PM181104 was dissolved in chloroform (5% of the total required volume) and diluted using methanol (95% of the total required volume).

Experiment [3] deals with E. faecium (O2-D3IP1). Description: MIC, Macro-broth dilution method. Format: cell-based, Enterococcus faecium.
Description: as §3

Experiment [4] deals with E. faecium (VR-1). Description: MIC, Macro-broth dilution method. Format: cell-based, Enterococcus faecium.
Description: as §3

Experiment [5] deals with E. faecium D 18F. Description: MIC, Macro-broth dilution method. In kind it is cell-based, Enterococcus faecium.
Description: as §3

In experiment [6] the test system is E. faecium 4045H. Description: MIC, Macro-broth dilution method. In kind it is cell-based, Enterococcus faecium.
Description: as §3

Experiment [7] relates to B. megaterium FH 1127. Description: MIC, Macro-broth dilution method. Format: cell-based, Bacillus megaterium.
Description: as §3

Experiment [8] has as its system methicillin resistant S. aureus E710 (MRSA). In kind it is in vivo, Balb/C mice. The note with it: 5 mg/kg intravenously two hours post infection.
Description: as §1, §2
Balb/C mice were infected subcutaneously with approximately 10^8 cfu of an overnight grown culture of methicillin resistant S. aureus E710 (MRSA). The bacteria were suspended in 1:1 mixture of 2% cytodex beads in normal saline (0.85% sodium chloride). PM181104 was prepared in cremophor-ethanol formulation as described in example 14. The solution was administered intravenously at 2.5 mg, 5 mg and 10 mg/kg doses, two hours post infection. Each experimental group consisted of six animals. Following abscess formation the animals were sacrificed and abscess harvested to determine the viable counts. […] Linezolid (manufactured by Glenmark Pharma Ltd; Batch no: K2005028) at 50 mg/kg dose.

Molecules are shown by their SMILES. Values after ≈ are worked out from the molar mass of the structure shown.

In turn, `C=C(NC(=O)C(=C)NC(=O)C1CCCN1C(=O)c1nc(-c2ccc(-c3nc(C(=O)NC(=C)C(=O)NC(C)C(N)=O)cs3)c(-c3csc(C4Cc5nc(cs5)C(=O)NC(Cc5ccccc5)C5=NC(CS5)C(=O)NC(Cc5ccc(O)cc5)C(=O)N5CCCC5c5nc(cs5)C(=O)N4)n3)n2)oc1C)C(N)=O` (centres unmarked) [PM181104] returned a PD100 in experiment [1] of 5 mg/kg. In addition, the MIC was 7.81 ng/mL (≈ 5.15 nM) in experiment [2]; 3.91 ng/mL (≈ 2.58 nM) in experiment [3]; 7.81 ng/mL (≈ 5.15 nM) in experiment [4]; 7.81 ng/mL (≈ 5.15 nM) in experiment [5]; 7.81 ng/mL (≈ 5.15 nM) in experiment [6]; 7.81 ng/mL (≈ 5.15 nM) in experiment [7]. For the same compound, in experiment [8], the “decrease in bacterial count in abscess” value was “approximately 1 log”.
